Patent US9289365B2, “Compositions and methods for stimulating collagen synthesis in the skin” (Avon Products, Inc., priority 2011, dated 2016)

System: Human dermal fibroblasts
Assay: Stimulation of collagen synthesis in human dermal fibroblasts, procollagen type I C-peptide (PIP) EIA
Assay type: cell-based
Conditions: compound at 0.0005% in DMSO, triplicate, 48-hour incubation; procollagen type I C-peptide in conditioned medium; increase in collagen over DMSO control
Procedure: The compounds 1-5, and 8-9 were assayed for stimulation of collagen synthesis as follows. Human dermal fibroblasts (Cascade Biologics, Portland, Oreg.) were plated at 10,000 cells/well in 96-well culture plates in supplemented medium (DMEM, 10% Fetal Bovine Serum, 1% Penicillin/Streptomycin and 1% L-Glutamine) overnight in humidified atmosphere of 10% CO2 at 37° C. The next day, the medium was replaced with fresh medium (DMEM, 1% Penicillin/Streptomycin and 1% L-Glutamine) and the compounds dissolved DMSO were added to the wells in triplicate at a concentration of 0.0005%, DMSO solution was used a control. Following 48-hour incubation, the plates were removed from the incubator and the medium from each well was collected for the procollagen assay.
Collagen production was measured using procollagen type I C-peptide (PIP) EIA kit (Takara Bio, Inc., Japan). Briefly, the conditioned medium was diluted 1:10 in Sample Diluent, 20 μl of diluted conditioned medium and 100 μl of antibody-POD conjugate solution were added to the wells of the Takara HASA plate. The ELISA plate was incubated at 37° C. for 3 hours before the wells were washed four times with 400 μl of 1×PBS. At the end of wash, 100 μl of substrate solution (supplied with kit) was added to the wells and incubated at room temperature for 15 minutes. The reaction was stopped by adding 100 μl of 1N sulfuric acid to the wells. The absorbance was measured on a spectrophotometer at 450 nm wavelength. The amount of procollagen peptide in the conditioned medium was calculated from the standard curve. The stimulation of collagen production was shown as an increase in collagen over the control.

Q: Which “% Collagen Stimulation” value does the source give for `CCc1c(C(=O)N2CCCC2)cnn1-c1ccccc1Cl` [Compound 1] here?
A: 73.2%

Q: `Cc1c(C(=O)N2CCCC2)c(CC(C)C)nn1-c1ccccc1` [Compound 2] was tested. Which “% Collagen Stimulation” value did it give?
A: 23.1%

Q: With `CCCc1c(C(=O)N2CCOCC2)cnn1-c1ccccc1Cl` [Compound 3] as the molecule, how does the “% Collagen Stimulation” value read?
A: 13.5%

Q: How did the “% Collagen Stimulation” value turn out when `Cc1c(C(=O)N2CCCC2)cnn1-c1ccccc1` [Compound 4] was run?
A: 12.5%

Q: With `CCCc1c(C(=O)N2CCCC2)cnn1-c1ccccc1C` [Compound 5] as the molecule, how does the “% Collagen Stimulation” value read?
A: 45.23%

Q: `Cc1ccccc1N1CCN(C(=O)c2cc(-c3ccccc3)nn2-c2ccc(Cl)c(Cl)c2)CC1` [Compound 8] was tested. Which “% Collagen Stimulation” value did it give?
A: 83.7%

Q: With `Cc1ccccc1N1CCN(C(=O)c2cc(-c3cccn3C)nn2-c2ccccc2Cl)CC1` [Compound 9] as the molecule, how does the “% Collagen Stimulation” value read?
A: 62.2%
